# Read-outs that look alike come from different tables or passages of the source.
# Assays:
# UGT1A9 [1] = target: T1, UGT1A9 (Homo sapiens, UniProt O60656); conditions: for Log (CLint) (Actual): human, recombinant enzyme
# T1 sequence (O60656 26-530): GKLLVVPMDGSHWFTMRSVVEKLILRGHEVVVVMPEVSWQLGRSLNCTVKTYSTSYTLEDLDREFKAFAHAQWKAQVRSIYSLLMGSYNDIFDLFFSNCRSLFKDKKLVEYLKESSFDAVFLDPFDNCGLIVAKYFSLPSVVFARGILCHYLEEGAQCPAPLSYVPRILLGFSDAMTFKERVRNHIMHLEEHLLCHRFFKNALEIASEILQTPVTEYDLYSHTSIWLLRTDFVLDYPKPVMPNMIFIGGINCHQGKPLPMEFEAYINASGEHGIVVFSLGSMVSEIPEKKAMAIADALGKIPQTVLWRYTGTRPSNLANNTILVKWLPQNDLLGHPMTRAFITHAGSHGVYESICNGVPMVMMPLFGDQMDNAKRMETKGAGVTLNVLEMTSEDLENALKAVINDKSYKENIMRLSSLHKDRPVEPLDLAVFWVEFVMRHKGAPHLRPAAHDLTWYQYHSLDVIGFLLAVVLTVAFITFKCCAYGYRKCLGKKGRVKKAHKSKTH
# UGT1A9 [2] = target: T1, UGT1A9; assay: Kinetic profiling of glucuronidation by expressed human UGT1A9; conditions: log of experimental CLint (μl/mg/min)
Log (CLint) (Actual) (UGT1A9 [2]),Molecule,further results
4.66,"COc1cccc(-c2oc3ccccc3c(=O)c2O)c1 [compound 73, 3-Hydroxy-3′-methoxyflavone]",
4.51,"COc1ccc(-c2oc3ccccc3c(=O)c2O)cc1 [compound 74, 3-Hydroxy-4′-methoxyflavone]",
4.36,"COc1cccc2oc(-c3ccccc3)c(O)c(=O)c12 [compound 76, 3-Hydroxy-5-methoxyflavone]",
4.96,"Cc1ccc2oc(-c3ccc4c(c3)OCO4)c(O)c(=O)c2c1 [compound 82, 3-Hydroxy-6-methyl-3′,4′-methylenedioxyflavone]",
2.00,"O=c1c(O)c(-c2ccccc2O)oc2cc(O)cc(O)c12 [compound 83, Datiscetin]",
2.57,"COc1cc2c(=O)c(-c3ccccc3)coc2cc1O [compound 98, 7-Hydroxy-6-methoxyisoflavone]",
3.57,"COc1ccc2c(=O)c(-c3ccccc3)coc2c1O [compound 99, 8-Hydroxy-7-methoxyisoflavone]",
1.48,"COc1ccc(-c2coc3cc(O)ccc3c2=O)cc1 [compound 104, Formononetin]",
1.78,"Oc1ccc(C2CCCC2)cc1 [compound 112, 4-Cyclopentylphenol]",
0.92,"CCOc1ccc(O)cc1 [compound 113, 4-Ethoxyphenol]",
1.87,"CCc1ccc(O)cc1 [compound 114, 4-Ethylphenol]",
1.18,"Oc1ccc(F)cc1 [compound 115, 4-Fluorophenol]",
1.18,"COc1ccc(O)cc1 [compound 118, 4-Methoxyphenol]",
1.15,"CC(=O)c1ccc(O)cc1 [compound 121, 4-Hydroxyacetophenone]",
1.83,"O=C(c1ccccc1)c1ccc(O)cc1 [compound 122, 4-Hydroxybenzophenone]",
1.00,"CCCOc1ccc(O)cc1 [compound 125, 4-Propoxyphenol]",
1.62,"CCCc1ccc(O)cc1 [compound 126, 4-n-Propylphenol]",
1.8,"Oc1ccc(/C=C/c2cc(O)cc(O)c2)cc1 [compound 138, Resveratrol]",
−0.56,"O=C1[C@H](CC[C@H](O)c2ccc(F)cc2)[C@@H](c2ccc(O)cc2)N1c1ccc(F)cc1 [compound 141, Ezetimibe, reference compound]",
1.96,"COc1c(C)c2c(c(O)c1C/C=C(\C)CCC(=O)O)C(=O)OC2 [compound 142, Mycophenolic Acid, reference compound]",

# More lines, now with the values behind:
Molecule,Log (CLint) (Actual) (UGT1A9 [2]),further results
"O=C(/C=C/c1ccccc1)c1ccccc1O [compound 5, 2′-Hydroxychalcone]",,Log (CLint) (Actual) (UGT1A9 [1]; pH 7.4): 3.12
"O=c1cc(-c2ccccc2)oc2cccc(O)c12 [compound 34, 5-Hydroxyflavone]",,Log (CLint) (Actual) (UGT1A9 [1]; pH 7.4): 2.09
"O=c1cc(-c2cccc(O)c2)oc2cc(O)c(O)cc12 [compound 36, 6,7,3′-Trihydroxflavone]",,CLint (Vmax/Km) (UGT1A9 [1]): 775 µL/min/mg; Log (CLint) (Actual) (UGT1A9 [1]): 2.89; Km (UGT1A9 [1]; pH 7.4): 3.01 µM
"Cc1cc(O)cc2oc(-c3ccccc3)cc(=O)c12 [compound 48, 7-Hydoxy-5-methylflavone]",,CLint (Vmax/Km) (UGT1A9 [1]): 5712 µL/min/mg; Log (CLint) (Actual) (UGT1A9 [1]): 3.76; Km (UGT1A9 [1]; pH 7.4): 0.94 µM
"O=c1cc(-c2ccc(O)cc2)oc2cc(O)cc(O)c12 [compound 50, Apigenin]",,Log (CLint) (Actual) (UGT1A9 [1]; pH 7.4): 3.23
"O=c1cc(-c2ccccc2)oc2cc(O)cc(O)c12 [compound 52, Chrysin]",,Log (CLint) (Actual) (UGT1A9 [1]; pH 7.4): 3.96
"COc1c(O)cc2oc(-c3ccccc3)cc(=O)c2c1O [compound 57, OroxylinA]",,Log (CLint) (Actual) (UGT1A9 [1]; pH 7.4): 2.94
"O=c1c(O)c(-c2ccc(O)cc2)oc2ccccc12 [compound 64, 3,4′-Dihydroxyfavone]",,CLint (Vmax/Km) (UGT1A9 [1]): 14000 µL/min/mg; Log (CLint) (Actual) (UGT1A9 [1]): 4.14; Km (UGT1A9 [1]; pH 7.4): 0.13 µM
"O=c1c(O)c(-c2ccccc2)oc2ccc(O)cc12 [compound 65, 3,6-Dihydroxyfavone]",,CLint (Vmax/Km) (UGT1A9 [1]): 21000 µL/min/mg; Log (CLint) (Actual) (UGT1A9 [1]): 4.32; Km (UGT1A9 [1]; pH 7.4): 0.62 µM
"COc1ccccc1-c1oc2ccccc2c(=O)c1O [compound 72, 3-Hydroxy-2′-methoxyflavone]",4.25,
"COc1cc(OC)c2c(=O)c(O)c(-c3ccccc3)oc2c1 [compound 75, 3-Hydroxy-5,7-dimethoxyflavone]",4.40,
"COc1ccc(-c2oc3ccc(OC)cc3c(=O)c2O)cc1 [compound 77, 3-Hydroxy-6,4′-dimethoxyflavone]",4.71,
"COc1ccc2oc(-c3ccccc3)c(O)c(=O)c2c1 [compound 78, 3-Hydroxy-6-methoxyflavone]",4.86,
"COc1ccc(-c2oc3cc(OC)ccc3c(=O)c2O)cc1 [compound 79, 3-Hydroxy-7,4′-dimethoxyflavone]",4.66,
"COc1ccc2c(=O)c(O)c(-c3ccccc3)oc2c1 [compound 80, 3-Hydroxy-7-methoxyflavone]",4.57,
"O=c1c(O)c(-c2ccccc2)oc2ccccc12 [compound 81, 3-Hydroxyflavone]",3.84,
"COc1cc(-c2oc3cc(O)ccc3c(=O)c2O)ccc1O [compound 86, Geraldol]",3.60,

Molecule,Log (CLint) (Actual) (UGT1A9 [2]),further results
"COc1cc(-c2oc3cc(O)cc(O)c3c(=O)c2O)ccc1O [compound 87, Isorhamnetin]",,Log (CLint) (Actual) (UGT1A9 [1]; pH 7.4): 4.59
"O=c1c(O)c(-c2ccc(O)cc2O)oc2cc(O)cc(O)c12 [compound 89, Morin]",1.77,
"COc1cc(O)c2c(=O)c(O)c(-c3ccc(O)c(O)c3)oc2c1 [compound 93, Rhamnetin]",4.65,
"Oc1ccc([C@H]2COc3cc(O)ccc3C2)cc1 [compound 103, Equol]",0.57,
"COc1cc2c(=O)c(-c3ccc(O)cc3)coc2cc1O [compound 106, Glycitein]",2.44,
"Oc1ccc2c(c1)OC[C@H]1c3cc4c(cc3O[C@@H]21)OCO4 [compound 107, Maackiain]",1.87,
"COc1cc(O)c2c(=O)c(-c3ccc(O)cc3)coc2c1 [compound 108, Prunetin]",2.25,
"Oc1ccc(Cl)cc1 [compound 111, 4-Chlorophenol]",1.98,
"O=[N+]([O-])c1ccc(O)cc1 [compound 120, 4-Nitrophenol]",1.56,
"Oc1ccc(-c2ccccc2)cc1 [compound 123, 4-Phenylphenol]",1.34,
"CCCCOC(=O)c1ccc(O)cc1 [compound 129, Butyl-4-hydroxybenzoate]",1.51,
"COc1ccc(/C=C\c2cc(OC)c(OC)c(OC)c2)cc1O [compound 136, Combretastatin A4]",3.33,
"COc1cc(/C=C/c2ccc(O)cc2)cc(OC)c1 [compound 137, Pterostilbene]",0.05,
"CCN(CC)C(=O)/C(C#N)=C/c1cc(O)c(O)c([N+](=O)[O-])c1 [compound 140, Entacapone, reference compound]",4.01,
"Cc1ccc(C(=O)c2cc(O)c(O)c([N+](=O)[O-])c2)cc1 [compound 145, Tolcapone, reference compound]",2.62,
(−)-Epigallocatechingallate [1.a],2.20,Log (CLint) (Actual) (UGT1A9 [2]; listed as 1.b): 2.81
